We go through 6 molecules from PMC12481576, “Barbituric Acid Derivatives as Covalent Inhibitors of Leishmania braziliensis Dihydroorotate Dehydrogenase” (Journal of Medicinal Chemistry, 2025).

Series [1] concerns Leishmania braziliensis promastigotes. Put plainly: Leishmanicidal activity, promastigote growth (SYBR Green, 72 h). It is filed as cell-based, Leishmania (V.) braziliensis (MHOM/BR/1975/M2904). Particulars: Leishmania braziliensis, L. braziliensis promastigotes, max 200 μM. As to the method: The cultures were adjusted to 4 × 10^6 parasites per mL, and 50 μL of each culture was added on a test plate with 384 wells (Corning, #CLS3658), along with the controls and compounds to be tested. Previously diluted compounds in DMSO were added to plates in decreasing concentrations, with a maximum concentration of 200 μM. Parasites were exposed to a final concentration of DMSO in various dilutes (final = 0.5%), and the culture medium was used as the control for the experiment. […] After adding the lysis buffer, the plates were incubated in the dark for 2 h with gentle shaking. The readings were done using a SpectraMax M3 reader (excitation at 485 nm and emission at 535 nm).

For series [2], the target named is LbDHODH (Leishmania braziliensis, UniProt E9AI53). Put plainly: biochemical. Particulars: for IC50: LbDHODH. As to the method: To assess the ability of compounds 2a–2i to inhibit LbDHODH via covalent bond formation with Cys^131, we initially screened them at a concentration of 100 μM under two conditions: with and without a 4-h preincubation with the enzyme.
LbDHODH, sequence (E9AI53 entry or part of it): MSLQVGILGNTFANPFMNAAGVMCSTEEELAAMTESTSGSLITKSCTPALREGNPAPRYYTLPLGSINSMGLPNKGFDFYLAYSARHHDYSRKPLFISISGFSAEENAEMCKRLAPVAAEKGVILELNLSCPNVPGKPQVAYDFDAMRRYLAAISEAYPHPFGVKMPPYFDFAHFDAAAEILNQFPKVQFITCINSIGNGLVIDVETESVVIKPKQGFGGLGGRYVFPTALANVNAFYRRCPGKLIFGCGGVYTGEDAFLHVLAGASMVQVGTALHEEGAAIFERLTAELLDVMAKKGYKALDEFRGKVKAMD
The experiments were performed in a 96-well microplate reader (SpectraMax Plus 384, Molecular Devices, USA), containing the […] of the buffer 60 mM DCIP, 50 mM Tris pH 8.15, 150 mM KCl, 0.1% Triton X-100, 50 μM DHO and 10 μM of LbDHODH at 165 nM. The reaction was monitored every 3 s at 610 nm over a period of 60 s, in triplicate, for the control and each concentration of the inhibitor. All assays were performed without incubation (0h) and with 4-h preincubation of the inhibitor with LbDHODH, using 5% DMSO (v/v) as control. […]. […] The resulting kobs values were plotted as a function of inhibitor concentration, and the data in the initial linear region was fit to determine the slope, which is kinact/KI. All regressions were performed with GraphPad Prism 9.

Series [3] concerns the target T1, HsDHODH (Homo sapiens, UniProt Q02127).
T1 construct: made in house
In words: Selectivity assay: HsDHODH single-dose inhibition (DCIP reduction). It counts as biochemical. Here is the method:
[…]. This finding highlights the potential of barbituric acid derivatives as selective inhibitors of LbDHODH.
Human DHODH expression and purification were conducted following a protocol previously established in our laboratory. The purification was carried out by affinity chromatography on a Ni-NTA Agarose column (Qiagen[…] Cat. No. 30210). […] The reaction was performed in triplicate, initiated by adding 195 μL of reaction buffer to 5 μL of HsDHODH protein solution for a final concentration of 20 nM enzyme. As a blank, 195 μL of reaction buffer was added to 5 μL of Buffer A. The reaction was monitored at 610 nm every 3 s over 60 s. As a control, 5 μL of enzyme was added to 195 μL of reaction medium without compound. Enzymatic velocity was calculated, and the percentage of relative enzymatic activity was determined relative to the control.

Series [4] in a line: Cell viability / cytotoxicity assay (PrestoBlue, 72 h). Particulars: human; THP-1 cell line, 72 h, max 200 μM; read-out: CC50. It counts as cell-based. As to the method:
THP-1 cells (American Type Cell Collection, #TIB-202) were acquired in 2019 and stored frozen in liquid nitrogen. The cells were then maintained in RPMI 1640 (Thermo Fisher Scientific, #S31800–022) at 37 °C in a 5% CO2 atmosphere and routinely tested for Mycoplasma contamination by PCR using the primers 5′-[…] and 5′-[…]. To test the toxicity of compounds, 5000 cells were added to 96-well plates with a final volume of 80 μL centrifuged at 400g for 2 min and incubated with 150 ng/mL of phorbol myristate acetate (Merck, #P8139) for 48 h. The medium was replaced, and after 24 h, the compounds were added and tested at decreasing concentrations starting from 200 μM (10 μL/well). After 72 h of incubation, 10 μL of PrestoBlue Cell Viability Reagent (Thermo Fisher Scientific, #A13262) was added per well. After adding the reagent, the cells were incubated for 2 h at 37 °C in a 5% CO2 atmosphere, and fluorescence readings were performed using the SpectraMax M3 reader (excitation at 560 nm and emission at 590 nm).

Where [5] appears, read: LbDHODH remaining activity, compound 100 μM, 4-h preincubation, read-out: single dose (4 h) % activity.
The mark [6] stands for this setting: LbDHODH remaining activity, compound 100 μM, without preincubation, read-out: single dose (0 h) % activity.
The mark [7] stands for this setting: read-out: Single dose (0h) % activity.
Setting [8] is: read-out: Single dose (4h) % activity.
Setting [9] is: IC50 0 h, without preincubation.
The mark [10] stands for this setting: 0 h, pH 8.15, read-out: LbDHODH Activity±SD (%).
The mark [11] stands for this setting: 4 h, pH 8.15, read-out: LbDHODH Activity±SD (%).

Where two headings read alike, the source gives them in different places.

T1 sequence (Q02127 whole entry): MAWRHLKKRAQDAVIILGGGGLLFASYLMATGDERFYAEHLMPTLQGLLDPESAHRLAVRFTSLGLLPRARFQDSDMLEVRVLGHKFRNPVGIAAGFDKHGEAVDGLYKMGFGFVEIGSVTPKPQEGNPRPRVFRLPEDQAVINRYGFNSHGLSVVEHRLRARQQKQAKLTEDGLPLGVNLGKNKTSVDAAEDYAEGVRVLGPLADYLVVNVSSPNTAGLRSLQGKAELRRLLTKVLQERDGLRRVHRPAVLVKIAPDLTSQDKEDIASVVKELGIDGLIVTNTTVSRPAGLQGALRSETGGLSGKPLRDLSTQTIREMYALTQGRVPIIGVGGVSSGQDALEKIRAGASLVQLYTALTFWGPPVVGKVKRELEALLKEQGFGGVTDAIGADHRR

With `O=C1NC(=O)C(CCCc2ccccc2)C(=O)N1` [3ii, 5-(3-Phenylpropyl)pyrimidine-2,4,6(1H,3H,5H)-trione], in series [1], the midpoint of the response, the EC50, lay at 23 ± 6 µM. The activity at 100 µM amounted to 21 ± 7% in series [2] (setting [5]), 98 ± 5% in series [2] (setting [6]), 99 ± 11% in series [3] (setting [7]) and 96 ± 9% in series [3] (setting [8]). The CC50 (in general, the concentration that lowers cell viability or growth by half) at 72 h in series [4] was above 200 µM.
`O=C1NC(=O)C(Cc2ccc(-c3ccccc3)cc2)C(=O)N1` [3f, 5-([1,1′-Biphenyl]-4-ylmethyl)pyrimidine-2,4,6(1H,3H,5H)-trione]: the EC50 (in general, the midpoint of the concentration-response curve) in series [1] is above 200 µM. Moreover, the activity at 100 µM came out at 34 ± 6% in series [2] (setting [5]), 83 ± 0.2% in series [2] (setting [6]), 93 ± 11% in series [3] (setting [7]) and 102 ± 10% in series [3] (setting [8]). In series [2] (LbDHODH remaining activity, compound 100 μM, without preincubation, 100 µM), the “single dose (0 h) % activity” value came to 82.6 ±0.2%. The CC50 at 72 h in series [4] was above 200 µM.
Turning to `O=C1NC(=O)C(Cc2ccccc2)C(=O)N1` [3a, 5-Benzylpyrimidine-2,4,6(1H,3H,5H)-trione], the concentration giving a half-maximal response (EC50) in series [1] was above 200 µM. Also, the IC50 (in general, the point on the concentration scale where inhibition reaches its midpoint) in series [2] (setting [9]) was above 100 µM; in series [2] (IC50 4 h, 4-h preincubation), above 100 µM. The activity at 100 µM in series [2] (setting [7]) came to 90 ± 10%; in series [2] (setting [8]) it was 70 ± 8%; in series [3] (setting [7]) it was 109 ± 12%; in series [3] (setting [8]) it was 97 ± 9%. Besides, the CC50 at 72 h in series [4] is above 200 µM.
On to `O=C1NC(=O)C(=Cc2ccc(C(=O)O)cc2)C(=O)N1` [2b, 4-((2,4,6-Trioxotetrahydropyrimidin-5(2H)-ylidene)methyl)benzoic Acid], for which the EC50 in series [1] is above 200 µM. In addition, in series [2] (setting [10]), the activity at 0.195312 µM came to 98 ± 18%, the activity at 0.390625 µM worked out at 96 ± 9%, the activity at 0.78125 µM worked out at 100 ± 8% and the activity at 1.5625 µM came to 96 ± 7%. For the same molecule, in series [2] (setting [10]), the activity at 3.125 µM came out at 97 ± 7%, the activity at 6.25 µM came out at 94 ± 18%, the activity at 12.5 µM stood at 97 ± 10% and the activity at 25 µM amounted to 72 ± 10%. For the same molecule, in series [2] (setting [10]), the activity at 50 µM was 72 ± 6%, the activity at 100 µM came to 65 ± 5%, the activity at 200 µM was determined as 60 ± 22% and the activity at 400 µM is 86 ± 18%. In series [2] (setting [11]), the activity at 0.195312 µM was determined as 94 ± 11%, the activity at 0.390625 µM was 99 ± 11%, the activity at 0.78125 µM was 91 ± 20% and the activity at 1.5625 µM is 80 ± 8%. Besides, in series [2] (setting [11]), the activity at 3.125 µM is 90 ± 6%, the activity at 6.25 µM was found to be 83 ± 13%, the activity at 12.5 µM is 65 ± 4% and the activity at 25 µM stood at 66 ± 4%. Moreover, in series [2] (setting [11]), the activity at 50 µM was 29 ± 5%, the activity at 100 µM was found to be 15 ± 1%, the activity at 200 µM was determined as 13 ± 6% and the activity at 400 µM came to 7 ± 2%. This molecule came in with an IC50 in series [2] (setting [9]) above 100 µM. In addition, the 50% inhibitory concentration (IC50) in series [2] (IC50 4 h, 4-h preincubation) amounted to 22 ± 1 µM. Besides, the activity at 100 µM in series [2] (setting [7]) amounted to 70 ± 10%. The activity at 100 µM in series [2] (setting [8]) came out at 10 ± 2%. In series [2] (read-out: enzyme inhibition), the inhibition (commonly the share of the control response that was lost under treatment) at 100 µM was in the range of 90 to 93%. For the same molecule, in series [3] (setting [7]), the activity at 100 µM was 105 ± 12%. Besides, the activity at 100 µM in series [3] (setting [8]) is 99 ± 10%. Also, in series [4], the CC50 at 72 h is above 200 µM.
`O=C1NC(=O)C(Cc2ccc(-c3ccccc3F)[nH]2)C(=O)N1` [3h, 5-((5-(2-Fluorophenyl)-1H-pyrrol-2-yl)methyl)pyrimidine-2,4,6(1H,3H,5H)-trione] came in with a 50% effective concentration (EC50) in series [1] above 200 µM. For the same molecule, the IC50 is above 100 µM in series [2] (setting [9]) and above 100 µM in series [2] (IC50 4 h, 4-h preincubation). Besides, the activity at 100 µM in series [2] (setting [7]) is 80 ± 10%; in series [2] (setting [8]) it was 80 ± 20%; in series [3] (setting [7]) it was 89 ± 10%; in series [3] (setting [8]), 91 ± 9%. In addition, the half-maximal cytotoxic concentration (CC50) at 72 h in series [4] is above 200 µM.
In series [1], `COc1cc(CC2C(=O)NC(=O)NC2=O)ccc1O` [3c, 5-(4-Hydroxy-3-methoxybenzyl)pyrimidine-2,4,6(1H,3H,5H)-trione] had an EC50 above 200 µM. In addition, the IC50 in series [2] (setting [9]) was above 100 µM; in series [2] (IC50 4 h, 4-h preincubation) it was above 100 µM. Also, the activity at 100 µM was 98 ± 7% in series [2] (setting [7]), 60 ± 10% in series [2] (setting [8]), 87 ± 10% in series [3] (setting [7]) and 79 ± 8% in series [3] (setting [8]). For the same molecule, the CC50 at 72 h in series [4] was above 200 µM.
